According to patent publication US12686689B2, “HPK1 inhibitor, preparation method therefor and use thereof” (WIGEN BIOMEDICINE TECHNOLOGY (SHANGHAI) CO., LTD., priority 2020, dated 2026):

The molecules below were run against HPK1 (Homo sapiens, UniProt Q92918) (assay: Inhibitory effect against enzyme activity of HPK1 (lantha Screen, PKC substrate)). Settings: class symbols defined as IC50 ranges, read-out: Inhibition rate (%).
Format: biochemical
Experimental: Example 130: Assay of Inhibitory Effect of Compound Against Enzyme Activity of HPK1
The inhibitory effect of the compound against the enzyme activity of HPK1 was determined by using a lantha Screen method with PKC as a substrate. The process comprises the following specific steps: the HPK1 protein was incubated with the serially-diluted compound at 28° C. for 10 min followed by addition of fluoroescein-labeled PKC substrate and ATP to react for 90 min. After termination of the reaction, a Terbium-labeled antibody against phosphorylated PKC was added and incubated for 60 min. The energy transfer of Teribium and fluoroscein was monitored by detecting luminescence at 520 nm and 450 nm to quantify PKC as the level of phosphorylation of […]. Inhibition % and IC50 of the compound were calculated compared to the control group.

HPK1, sequence (Q92918 whole entry): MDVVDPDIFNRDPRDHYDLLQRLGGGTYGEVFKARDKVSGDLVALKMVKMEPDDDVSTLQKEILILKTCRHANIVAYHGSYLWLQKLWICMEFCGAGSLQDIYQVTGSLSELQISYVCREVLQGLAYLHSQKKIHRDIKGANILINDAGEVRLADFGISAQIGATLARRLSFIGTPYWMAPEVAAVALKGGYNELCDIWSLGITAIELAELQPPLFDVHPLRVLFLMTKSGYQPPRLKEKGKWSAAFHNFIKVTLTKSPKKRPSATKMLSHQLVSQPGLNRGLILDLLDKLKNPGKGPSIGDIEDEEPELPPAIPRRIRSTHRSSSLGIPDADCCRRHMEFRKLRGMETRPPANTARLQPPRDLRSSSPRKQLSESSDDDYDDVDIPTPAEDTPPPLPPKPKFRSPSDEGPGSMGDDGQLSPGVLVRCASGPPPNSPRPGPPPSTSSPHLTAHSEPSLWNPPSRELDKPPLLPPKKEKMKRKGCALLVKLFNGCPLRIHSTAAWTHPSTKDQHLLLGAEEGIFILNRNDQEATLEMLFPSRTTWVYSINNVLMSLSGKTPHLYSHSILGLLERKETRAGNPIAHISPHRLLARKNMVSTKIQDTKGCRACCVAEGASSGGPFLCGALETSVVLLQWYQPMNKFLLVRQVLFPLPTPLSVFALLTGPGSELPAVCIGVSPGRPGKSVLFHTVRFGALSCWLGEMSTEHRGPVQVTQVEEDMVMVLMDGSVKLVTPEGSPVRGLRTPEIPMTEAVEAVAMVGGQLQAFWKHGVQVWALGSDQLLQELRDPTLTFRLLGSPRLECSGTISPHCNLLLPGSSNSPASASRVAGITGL

Row | Structure (SMILES) | IC50
1 | CNCc1cc(F)c(-c2cc3c(-c4ccc5c(c4)OCC4CN(C)CCN54)c[nH]c3cc2C#N)c(F)c1 (stereo not shown) [Compound 93] | ≤ 10 nM
2 | CN1CCN2c3ccc(-c4n[nH]c5cc(C#N)c(-c6c(F)cc(CC#N)cc6F)cc45)cc3OCC2C1 (stereo not shown) [Compound 24] | ≤ 10 nM
3 | CNCc1cc(C)c(-c2cc3c(-c4ccc5c(c4)OCC4CN(C6CC6)CCN54)n[nH]c3cc2C#N)c(F)c1 (stereo not shown) [Compound 125] | ≤ 10 nM
4 | CNCc1cc(C)c(-c2cc3c(-c4ccc5c(c4)OCC4CN(C)CCN54)c[nH]c3cc2C#N)c(F)c1 (stereo not shown) [Compound 92] | ≤ 10 nM
5 | CN1CCN2c3ccc(-c4cnc5[nH]cc(-c6ccc(C(=O)C7CNC7)cc6)c5c4)cc3OCC2C1 (stereo not shown) [Compound 108] | 10 to 100 nM
6 | CN1CCN2c3ccc(-c4cnc5[nH]nc(-c6ccc(C(=O)N7CC(O)C7)cc6)c5c4)cc3OCC2C1 (stereo not shown) [Compound 116] | 10 to 100 nM
7 | CN1CCN2c3ccc(-c4n[nH]c5cc(C#N)c(-c6c(F)cc(C(=O)N7CC(O)C7)cc6F)cc45)cc3OCC2C1 (stereo not shown) [Compound 36] | ≤ 10 nM
8 | CNCc1cc(C)c(-c2cc3c(-c4ccc5c(c4)OCC4CN(C6COC6)CCN54)n[nH]c3cc2C#N)c(F)c1 (stereo not shown) [Compound 126] | ≤ 10 nM
9 | CNCc1cc(F)c(-c2ncc3[nH]cc(-c4ccc5c(c4)OCC4CN(C)CCN54)c3n2)c(F)c1 (stereo not shown) [Compound 96] | 10 to 100 nM
10 | CNCc1cc(C)c(-c2ccc3[nH]nc(-c4ccc5c(c4)OCC4CN(C)CCN54)c3n2)c(F)c1 (stereo not shown) [Compound 86] | 10 to 100 nM
11 | COc1cccc(F)c1-c1cc2c(-c3ccc4c(c3)OCC3CN(C)CCN43)c[nH]c2cn1 (stereo not shown) [Compound 88] | ≤ 10 nM
12 | CNCc1cc(C)c(-c2nc3c(-c4ccc5c(c4)OCC4CN(C)CCN54)c[nH]c3cc2C#N)c(F)c1 (stereo not shown) [Compound 98] | ≤ 10 nM
13 | CNCc1cc(F)c(-c2ccc3[nH]nc(-c4ccc5c(c4)OCC4CN(C)CCN54)c3n2)c(F)c1 (stereo not shown) [Compound 87] | 10 to 100 nM
14 | CN1CCN2c3ccc(-c4n[nH]c5cc(C#N)c(-c6c(F)cc(NC(=O)CN7CCCC7)cc6F)cc45)cc3OCC2C1 (stereo not shown) [Compound 28] | ≤ 10 nM
15 | CN(C)CC(=O)Nc1cc(F)c(-c2cc3c(-c4ccc5c(c4)OCC4CN(C)CCN54)n[nH]c3cc2C#N)c(F)c1 (stereo not shown) [Compound 27] | ≤ 10 nM
16 | CNCc1cc(C)c(-c2cc3c(-c4ccc5c(c4)OCC4CN(CCC#N)CCN54)n[nH]c3cc2C#N)c(F)c1 (stereo not shown) [Compound 129] | ≤ 10 nM
17 | CN1CCN2c3ccc(-c4n[nH]c5cc(C#N)c(-c6cnc7nccnc7c6)cc45)cc3OCC2C1 (stereo not shown) [Compound 53] | ≤ 10 nM
18 | CN1CCN2c3ccc(-c4n[nH]c5cc(C#N)c(-c6ncccc6F)cc45)cc3OCC2C1 (stereo not shown) [Compound 42] | ≤ 10 nM
19 | CN1CCN2c3ccc(-c4n[nH]c5cc(C#N)c(-c6cncc7ccccc67)cc45)cc3OCC2C1 (stereo not shown) [Compound 54] | 10 to 100 nM
20 | CN1CCN2c3ccc(-c4n[nH]c5cc(C#N)c(-c6cnc7cnn(C)c7c6)cc45)cc3OCC2C1 (stereo not shown) [Compound 51] | ≤ 10 nM
21 | CN1CCN2c3ccc(-c4n[nH]c5cc(C#N)c(-c6ccn7ncnc7c6)cc45)cc3OCC2C1 (stereo not shown) [Compound 60] | ≤ 10 nM
22 | COc1ccncc1-c1cc2c(-c3ccc4c(c3)OCC3CN(C)CCN43)n[nH]c2cn1 (stereo not shown) [Compound 71] | ≤ 10 nM
23 | CNCc1cc(F)c(-c2cc3c(-c4ccc5c(c4)OCC4CN(C)CCN54)n[nH]c3cc2C#N)c(C(F)(F)F)c1 (stereo not shown) [Compound 19] | ≤ 10 nM

Row | Structure (SMILES) | IC50
24 | Cc1ccccc1-c1cc2c(-c3ccc4c(c3)OCC3CN(C)CCN43)n[nH]c2cc1C#N (stereo not shown) [Compound 3] | 10 to 100 nM
25 | CN(C)CCN(C)C(=O)c1ccc(-c2c[nH]c3ncc(-c4ccc5c(c4)OCC4CN(C)CCN54)nc23)cc1 (stereo not shown) [Compound 114] | ≤ 10 nM
26 | CN1CCN2c3ccc(-c4cnc5[nH]nc(-c6ccc(C(=O)N7CC(N(C)C)C7)cc6)c5c4)cc3OCC2C1 (stereo not shown) [Compound 115] | ≤ 10 nM
27 | CNCc1cc(F)c(-c2cc3c(-c4ccc5c(c4)OCC4CN(C)CCN54)n[nH]c3cc2C#N)c(OC)c1 (stereo not shown) [Compound 20] | ≤ 10 nM
28 | CN1CCN2c3ccc(-c4n[nH]c5cc(C#N)c(-c6ccccc6F)cc45)cc3OC[C@H]2C1 [Compound 1-b] | ≤ 10 nM
29 | CN1CCN2c3ccc(-c4n[nH]c5cc(C#N)c(-c6cccc(C#N)c6F)cc45)cc3OCC2C1 (stereo not shown) [Compound 8] | ≤ 10 nM
30 | CNCc1cc(C)c(-c2cc3c(-c4ccc5c(c4)OCC4CN(C)CCN54)n[nH]c3cc2C#N)c(F)c1 (stereo not shown) [Compound 17] | ≤ 10 nM
31 | CN1CCN2c3ccc(-c4n[nH]c5cc(C#N)c(-c6ccccc6F)cc45)cc3OC[C@@H]2C1 [Compound 1-a] | ≤ 10 nM
32 | CN1CCN2c3ccc(-c4cnc5[nH]cc(-c6ccc(C(=O)N7CC(O)C7)cc6)c5n4)cc3OCC2C1 (stereo not shown) [Compound 113] | ≤ 10 nM
33 | CNCc1cc(F)c(-c2cc3c(-c4ccc5c(c4)OCC4CN(C)CCN54)c[nH]c3cn2)c(F)c1 (stereo not shown) [Compound 90] | ≤ 10 nM
34 | COc1cccc(F)c1-c1nc2c(-c3ccc4c(c3)OCC3CN(C)CCN43)c[nH]c2cc1C#N (stereo not shown) [Compound 97] | 10 to 100 nM
35 | CN1CCN2c3ccc(-c4n[nH]c5cc(C#N)c(-c6cnc7c(c6)ncn7C)cc45)cc3OCC2C1 (stereo not shown) [Compound 52] | ≤ 10 nM
36 | CN1CCN2c3ccc(-c4cnc5[nH]cc(-c6ccc(C(=O)N7CC(O)C7)cc6)c5c4)cc3OCC2C1 (stereo not shown) [Compound 104] | 10 to 100 nM
37 | CN1CCN2c3ccc(-c4n[nH]c5cc(C#N)c(-c6cccc(NS(C)(=O)=O)c6F)cc45)cc3OCC2C1 (stereo not shown) [Compound 11] | 10 to 100 nM
38 | Cc1cncc(-c2cc3c(-c4ccc5c(c4)OCC4CN(C)CCN54)n[nH]c3cc2C#N)c1 (stereo not shown) [Compound 45] | ≤ 10 nM
39 | Cc1ccc(F)c(F)c1-c1cc2c(-c3ccc4c(c3)OCC3CN(C)CCN43)n[nH]c2cc1C#N (stereo not shown) [Compound 15] | ≤ 10 nM
40 | CN1CCN2c3ccc(-c4n[nH]c5cc(C#N)c(-c6cccn7ncnc67)cc45)cc3OCC2C1 (stereo not shown) [Compound 57] | ≤ 10 nM
41 | CN1CCN2c3ccc(-c4n[nH]c5cnc(-c6cccn7ccnc67)cc45)cc3OCC2C1 (stereo not shown) [Compound 77] | ≤ 10 nM
42 | CCNCc1cc(F)c(-c2cc3c(-c4ccc5c(c4)OCC4CN(C)CCN54)n[nH]c3cc2C#N)c(F)c1 (stereo not shown) [Compound 21] | ≤ 10 nM
43 | Cc1n[nH]cc1-c1cc2c(-c3ccc4c(c3)OCC3CN(C)CCN43)n[nH]c2cn1 (stereo not shown) [Compound 72] | ≤ 10 nM
44 | Cc1cccc(F)c1-c1cc2c(-c3ccc4c(c3)OCC3CN(C)CCN43)n[nH]c2cn1 (stereo not shown) [Compound 65] | 10 to 100 nM
45 | CN1CCN2c3ccc(-c4n[nH]c5cnc(-c6ccc(C(=O)N7CC(N(C)C)C7)cc6)cc45)cc3OCC2C1 (stereo not shown) [Compound 76] | 10 to 100 nM
46 | CN1CCN2c3ccc(-c4n[nH]c5cc(C#N)c(-c6c(F)cc(NC(=O)CC#N)cc6F)cc45)cc3OCC2C1 (stereo not shown) [Compound 30] | ≤ 10 nM

Row | Structure (SMILES) | IC50
47 | CN(C)CCN(C)C(=O)c1ccc(-c2n[nH]c3ncc(-c4ccc5c(c4)OCC4CN(C)CCN54)nc23)cc1 (stereo not shown) [Compound 120] | ≤ 10 nM
48 | COCc1cc(F)c(-c2cc3c(-c4ccc5c(c4)OCC4CN(C)CCN54)n[nH]c3cc2C#N)c(F)c1 (stereo not shown) [Compound 25] | ≤ 10 nM
49 | CN1CCN2c3ccc(-c4n[nH]c5cc(C#N)c(-c6c(F)ccc7c6CCNC7)cc45)cc3OCC2C1 (stereo not shown) [Compound 37] | ≤ 10 nM
50 | CNCc1cc(F)c(-c2ncc3[nH]nc(-c4ccc5c(c4)OCC4CN(C)CCN54)c3n2)c(F)c1 (stereo not shown) [Compound 81] | 10 to 100 nM
51 | CN1CCC(Oc2cc(F)c(-c3cc4c(-c5ccc6c(c5)OCC5CN(C)CCN65)n[nH]c4cc3C#N)c(F)c2)CC1 (stereo not shown) [Compound 33] | ≤ 10 nM
52 | CN1CCN2c3ccc(-c4n[nH]c5cc(C#N)c(-c6c(F)cc(OC(=O)N(C)C)cc6F)cc45)cc3OCC2C1 (stereo not shown) [Compound 34] | 10 to 100 nM
53 | CN1CC(C(O)c2ccc(-c3c[nH]c4ncc(-c5ccc6c(c5)OCC5CN(C)CCN65)cc34)cc2)C1 (stereo not shown) [Compound 111] | ≤ 10 nM
54 | CN1CCN2c3ccc(-c4n[nH]c5cc(C#N)c(-c6cccc(F)c6F)cc45)cc3OCC2C1 (stereo not shown) [Compound 7] | ≥ 100 nM
55 | CNCc1cc(C)c(-c2cc3c(-c4ccc5c(c4)NCC4CN(C)CCN54)n[nH]c3cc2C#N)c(F)c1 (stereo not shown) [Compound 121] | ≤ 10 nM
56 | CNCc1cc(C)c(-c2cc3c(-c4ccc5c(c4)OCC4CN(C)CCN54)n[nH]c3cn2)c(F)c1 (stereo not shown) [Compound 69] | ≤ 10 nM
57 | COc1cccc(F)c1-c1nc2c(-c3ccc4c(c3)OCC3CN(C)CCN43)n[nH]c2cc1C#N (stereo not shown) [Compound 82] | 10 to 100 nM
58 | COc1ccccc1-c1cc2c(-c3ccc4c(c3)OCC3CN(C)CCN43)n[nH]c2cc1C#N (stereo not shown) [Compound 2] | ≤ 10 nM
59 | CN1CCN2c3ccc(-c4n[nH]c5cc(C#N)c(-c6cccc(S(C)(=O)=O)c6F)cc45)cc3OCC2C1 (stereo not shown) [Compound 13] | ≥ 100 nM
60 | COc1cccc(F)c1-c1cc2c(-c3ccc4c(c3)OCC3CN(C)CCN43)c[nH]c2cc1C#N (stereo not shown) [Compound 91] | ≤ 10 nM
61 | CN1CCN2c3ccc(-c4n[nH]c5cnc(-c6c(F)cccc6F)cc45)cc3OCC2C1 (stereo not shown) [Compound 66] | 10 to 100 nM
62 | CN1CCN2c3ccc(-c4n[nH]c5cc(C#N)c(-c6cnn7cccnc67)cc45)cc3OCC2C1 (stereo not shown) [Compound 63] | ≤ 10 nM
63 | CN1CCN2c3ccc(-c4n[nH]c5cc(C#N)c(-c6ccc7nccn7c6)cc45)cc3OCC2C1 (stereo not shown) [Compound 59] | ≤ 10 nM
64 | CNCc1cc(C)c(-c2cc3c(-c4ccc5c(c4)N(C)CC4CN(C)CCN54)n[nH]c3cc2C#N)c(F)c1 (stereo not shown) [Compound 122] | ≤ 10 nM
65 | COc1cccc(F)c1-c1ccc2[nH]cc(-c3ccc4c(c3)OCC3CN(C)CCN43)c2n1 (stereo not shown) [Compound 100] | ≤ 10 nM
66 | CN1CCN2c3ccc(-c4cnc5[nH]nc(-c6ccc(C(=O)N7CC(O)C7)cc6)c5n4)cc3OCC2C1 (stereo not shown) [Compound 119] | 10 to 100 nM
67 | CN1CCN2c3ccc(-c4n[nH]c5cc(C#N)c(-c6cccn7cnnc67)cc45)cc3OCC2C1 (stereo not shown) [Compound 56] | ≤ 10 nM
